From patent US7026527B2, “Plant methionine synthase gene and methods for increasing the methionine content of the seeds of plants” (priority 1995, dated 2006)

Legend:
[1] = tested on: E. coli strain Gif106M1 transformed with pBT436; type: cell-based; settings: M9 media with arginine, isoleucine, ampicillin
Excerpt: To establish that the cloned lysC gene was functional, pBT436 was transformed into E. coli strain Gif106M1 (E. coli Genetic Stock Center strain CGSC-5074) which has mutations in each of the three E. coli AK genes [Theze et al., J. Bacteriol., (1974), 117, 133-143|. This strain lacks all AK activity and therefore requires diaminopimelate (a precursor to lysine which is also essential for cell wall biosynthesis), threonine and methionine.
M9 media [see Sambrook et al. (1989) Molecular Cloning: A Laboratory Manual, Cold Spring Harbor Laboratory Press| supplemented with the arginine and isoleucine, required for Gif106M1 growth, and ampicillin, to maintain selection for the pBT436 plasmid, was used. […] This property of pBT436-transforned Gif106M1 was used to select for mutations in lysC that encoded lysine-insensitive AKIII.

[2] = molecular target: T1, wild type AKIII (Escherichia coli, UniProt P08660, G401A); assay: Lysine inhibition of wild type AKIII aspartokinase activity; type: biochemical, E. coli; settings: read-out: inhibition of AKIII
T1 construct: made in house; host or cells: E. coli Gif106M1 (lacks all AK activity) transformed with pBT436
T1 sequence (P08660 2-449 G401A): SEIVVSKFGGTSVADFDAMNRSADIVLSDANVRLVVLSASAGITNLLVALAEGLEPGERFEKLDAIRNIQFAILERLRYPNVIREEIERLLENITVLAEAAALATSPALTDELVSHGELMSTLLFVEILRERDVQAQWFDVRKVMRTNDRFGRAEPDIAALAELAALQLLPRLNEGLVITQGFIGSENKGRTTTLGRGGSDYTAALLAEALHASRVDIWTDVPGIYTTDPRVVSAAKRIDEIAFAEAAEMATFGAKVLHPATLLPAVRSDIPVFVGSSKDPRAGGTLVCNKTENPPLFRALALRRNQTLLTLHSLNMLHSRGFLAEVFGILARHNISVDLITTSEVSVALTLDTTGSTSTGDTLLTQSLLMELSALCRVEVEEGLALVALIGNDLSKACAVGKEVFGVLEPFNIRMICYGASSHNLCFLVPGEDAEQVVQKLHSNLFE
Procedure: (§1) Single colonies of Gif106M1 transformed with pBT436 were picked and resuspended in 200 μL of a mixture of 100 μL 1% lysine plus 100 μL of M9 media. The entire cell suspension containing 10^7-10^8 cells was spread on a petri dish containing M9 media supplemented with the arginine, isoleucine, and ampicillin. Sixteen petri dishes were thus prepared. From 1 to 20 colonies appeared on 11 of the 16 petri dishes. One or two (if available) colonies were picked and retested for lysine resistance and from this nine lysine-resistant clones were obtained. Plasmid DNA was prepared from eight of these and re-transformed into Gif106M1 to determine whether the lysine resistance determinant was plasmid-borne. Six of the eight plasmid DNAs yielded lysine-resistant colonies. Three of these six carried lysC genes encoding AKIII that was uninhibited by 15 mM lysine, whereas wild type AKIII is 50% inhibited by 0.3-0.4 mM lysine and >90% inhibited by 1 mM lysine.
(§2) Assay mix (for 12×1.0 mL or 48×0.25 mL assays): • 2.5 mL H2O • 2.0 mL 4M KOH • 2.0 mL 4M NH2OH—HCl • 1.0 mL 1M Tris-HCl pH 8.0 • 0.5 mL 0.2M ATP (121 mg/ml in 0.2M NaOH) • 50 μL 1M MgSO4
(§3) Each 1.5 mL eppendorf assay tube contains:
(§4) Assay tubes are incubated at 30° C. for 30-60 min […];
(§5) Spin for 2 min in eppendorf centrifuge tube. Read OD at […].

[3] = molecular target: T2, wild type AKIII (Escherichia coli, UniProt P08660); assay: as above; type: biochemical, E. coli
T2 construct: made in house; host or cells: E. coli Gif106M1 (lacks all AK activity) transformed with pBT436
T2 sequence (P08660 2-449 G401A): as above
Procedure: as §1, §2, §3, §4, §5

[4] = molecular target: T3, AKIII encoded by mutant lysC genes (lysine-insensitive) (Escherichia coli, UniProt P08660, G401A/T352I); type: biochemical, E. coli; settings: 15 mM lysine; three mutant lysC genes (M2, M3, M4)
T3 construct: made in house; host or cells: E. coli Gif106M1 carrying mutated pBT436 plasmids
T3 sequence (P08660 2-449 T352I/G401A): as the sequence (P08660 2-449 G401A) above, with T351I counted along it
Procedure: as §1
The sequences of the three mutant lysC genes that encoded lysine-insensitive AK each differed from the wild type sequence by a single nucleotide, resulting in a single amino acid substitution in the protein. […] Thus, either of these single amino acid substitutions is sufficient to render the AKIII enzyme insensitive to lysine inhibition. […]
as §5

[5] = molecular target: T4, AKII-HDHII (HDH activity) (Escherichia coli, UniProt P00562); assay: HDH activity of AKII-HDHII extract (clone 5), inhibition by pathway end-products; type: biochemical, E. coli; settings: 30 mM end-product; extract from clone 5
T4 construct: The primers also add a Kpn I site immediately following the translation stop codon; made in house; host or cells: E. coli BL21(DE3), pBT430-derived T7 vector; supernatant of sonicated cells (clone 5, plasmid pBT718)
T4 sequence (P00562 other isoform, or with tags, fused parts or gaps): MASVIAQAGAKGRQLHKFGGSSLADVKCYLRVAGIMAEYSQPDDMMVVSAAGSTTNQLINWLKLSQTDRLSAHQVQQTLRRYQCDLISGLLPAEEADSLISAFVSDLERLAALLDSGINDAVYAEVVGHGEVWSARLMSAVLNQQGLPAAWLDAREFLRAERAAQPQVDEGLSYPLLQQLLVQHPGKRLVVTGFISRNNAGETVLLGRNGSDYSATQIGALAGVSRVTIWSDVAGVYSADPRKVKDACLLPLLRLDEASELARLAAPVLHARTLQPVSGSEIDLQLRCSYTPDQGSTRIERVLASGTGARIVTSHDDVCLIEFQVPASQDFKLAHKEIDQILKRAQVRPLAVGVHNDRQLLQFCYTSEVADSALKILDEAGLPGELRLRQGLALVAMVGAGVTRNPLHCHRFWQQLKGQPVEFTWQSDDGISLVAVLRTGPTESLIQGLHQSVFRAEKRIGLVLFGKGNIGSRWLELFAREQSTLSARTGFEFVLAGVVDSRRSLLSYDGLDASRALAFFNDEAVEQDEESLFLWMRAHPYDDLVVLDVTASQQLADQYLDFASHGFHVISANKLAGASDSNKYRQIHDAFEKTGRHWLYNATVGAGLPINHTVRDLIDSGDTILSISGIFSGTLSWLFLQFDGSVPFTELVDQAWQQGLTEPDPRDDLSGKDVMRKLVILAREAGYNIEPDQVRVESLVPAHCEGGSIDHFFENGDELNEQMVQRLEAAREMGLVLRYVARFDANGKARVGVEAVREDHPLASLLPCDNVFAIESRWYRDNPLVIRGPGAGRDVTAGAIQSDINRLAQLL
Procedure: The cells were collected by centririgation and resuspended in 1/25th the original culture volume in 50 mM NaCl; 50 mM Tris-Cl, pH 7.5; 1 mM EDTA, and frozen at −20° C., thawed at 37° C. and sonicated, in an ice-water bath, to lyse the cells. The lysate was centrifuged at 4° C. for 5 min at 12,000 rpm. The supernatant was removed and the pellet was resuspended in the above buffer. The supernatant fractions were assayed for HDH enzyme activities to identify clones expressing functional proteins. HDH activity was assayed as shown below: HDH ASSAY
Make Mixture of above reagents with amounts multiplied by number of assays. Use 0.9 mL of mix for 1 mL assay; 180 μL of mix for 0.2 mL assay in microtiter dish
to ½ the assay mix; remaining ½ lacks ASA to serve as blank
Add enzyme extract last to start reaction. Incubate at ˜30° C.; monitor NADPH oxidation at 340 nM. 1 unit oxidizes 1 μmol NADPH/min at 30° C. in the 1 mL reaction.

[6] = molecular target: T5, AKII-HDHII (AK activity) (Escherichia coli, UniProt P00562); assay: AK activity of AKII-HDHII extract (clone 5), inhibition by pathway end-products; type: biochemical, E. coli; settings: 30 mM end-product; extract from clone 5
T5 construct: The primers also add a Kpn I site immediately following the translation stop codon; made in house; host or cells: E. coli BL21(DE3), pBT430-derived T7 vector; supernatant of sonicated cells (clone 5, plasmid pBT718)
T5 sequence (P00562 other isoform, or with tags, fused parts or gaps): as above
Procedure: These four were then assayed for AK activity. AK activity was assayed as shown below:
as §2
pH of assay mix should be 7-8
as §3, §4, §5
Two extracts also had high levels of AK enzyme activity. These two extracts were then tested for inhibition of AK or HDH activity by the pathway end-products, lys, thr and met.

SMILES | concentration in growth medium that inhibits growth [1] | inhibition at 1000 µM [2] [%] | IC50 [3] [µM] | inhibition of mutant AKIII [4] | inhibition of HDH activity [5] | inhibition of AK activity [6]
NC(CCCC(N)C(=O)O)C(=O)O (centres unmarked) [diaminopimelate] | approximately 0.2 mM |  |  |  |  | 
NCCCC[C@H](N)C(=O)O [lysine] | approximately 0.2 mM | > 90 | 300 to 400 | uninhibited | Neither the AK nor the HDH activity of the extract from clone 5 was inhibited | Neither the AK nor the HDH activity of the extract from clone 5 was inhibited
CSCC[C@H](N)C(=O)O [methionine] |  |  |  |  | Neither the AK nor the HDH activity of the extract from clone 5 was inhibited | Neither the AK nor the HDH activity of the extract from clone 5 was inhibited
C[C@@H](O)[C@H](N)C(=O)O [threonine] |  |  |  |  | Neither the AK nor the HDH activity of the extract from clone 5 was inhibited | Neither the AK nor the HDH activity of the extract from clone 5 was inhibited
